Assays:
[1] = target: T1, Sodium-dependent noradrenaline transporter (Homo sapiens, UniProt P23975); experiment: Displacement of [125I]RTI55 from cloned human NET expressed in HEK293 cells; assay type: cell-based
Mus musculus [2] = experiment: Antidepressant activity in ip dosed mouse assessed as time to reach peak stimulation of locomotor activity; assay type: functional
Rattus norvegicus [3] = experiment: Effect on behavioural activity in rat assessed as cocaine-induced lever response at 50 mg/kg, ip pretreated with cocaine for 15 mins by drug-discrimination studies; assay type: functional; settings: route intraperitoneal
Rattus norvegicus [4] = experiment: Effect on behavioural activity in rat assessed as cocaine-induced lever response at 1 mg/kg, ip pretreated with cocaine for 15 mins by drug-discrimination studies; assay type: functional; settings: route intraperitoneal
Rattus norvegicus [5] = experiment: Effect on behavioural activity in rat assessed as cocaine-induced lever response at 5 mg/kg, ip pretreated with cocaine for 15 mins by drug-discrimination studies; assay type: functional; settings: route intraperitoneal
Mus musculus [6] = experiment: Antidepressant activity in ip dosed mouse assessed as stimulation of locomotor activity; assay type: functional
Rattus norvegicus [7] = experiment: Effect on behavioural activity in ip dosed rat assessed as cocaine-induced lever response pretreated with cocaine by drug-discrimination studies; assay type: functional
Rattus norvegicus [8] = experiment: Effect on behavioural activity in rat assessed as cocaine-induced lever response at 2.5 mg/kg, ip pretreated with cocaine for 15 mins by drug-discrimination studies; assay type: functional; settings: route intraperitoneal
Mus musculus [9] = experiment: Antidepressant activity in ip dosed mouse assessed as duration of locomotor activity; assay type: functional
Mus musculus [10] = experiment: Antidepressant activity in ip dosed mouse assessed as stimulation of locomotor activity relative to cocaine; assay type: functional
Rattus norvegicus [11] = experiment: Effect on behavioural activity in rat assessed as cocaine-induced lever response at 0.5 mg/kg, ip pretreated with cocaine for 15 mins by drug-discrimination studies; assay type: functional; settings: route intraperitoneal
Rattus norvegicus [12] = experiment: Effect on behavioural activity in rat assessed as cocaine-induced lever response at 100 mg/kg, ip pretreated with cocaine for 15 mins by drug-discrimination studies; assay type: functional; settings: route intraperitoneal
Rattus norvegicus [13] = experiment: Effect on behavioural activity in rat assessed as cocaine-induced lever response at 10 mg/kg, ip pretreated with cocaine for 15 mins by drug-discrimination studies; assay type: functional; settings: route intraperitoneal
Rattus norvegicus [14] = experiment: Effect on behavioural activity in rat assessed as cocaine-induced lever response at 25 mg/kg, ip pretreated with cocaine for 15 mins by drug-discrimination studies; assay type: functional; settings: route intraperitoneal
[15] = target: T2, Sodium-dependent serotonin transporter (Homo sapiens, UniProt P31645); experiment: biochemical; assay type: cell-based, HEK293
[16] = target: T2, Sodium-dependent serotonin transporter; experiment: Inhibition of [3H]serotonin reuptake at human SERT expressed in HEK293 cells; assay type: cell-based
[17] = target: T3, Sodium-dependent dopamine transporter (Homo sapiens, UniProt Q01959); experiment: Displacement of [125I]RTI55 from cloned human DAT expressed in HEK293 cells; assay type: cell-based
[18] = target: T1, Sodium-dependent noradrenaline transporter; experiment: Inhibition of [3H]norepinephrine reuptake at human NET expressed in HEK293 cells; assay type: cell-based
[19] = target: T3, Sodium-dependent dopamine transporter; experiment: Inhibition of [3H]dopamine reuptake at human DAT expressed in HEK293 cells; assay type: cell-based
Rattus norvegicus [20] = experiment: Effect on behavioural activity in rat assessed as cocaine-induced lever response at 1 mg/kg, po pretreated with cocaine for 180 mins by drug-discrimination studies; assay type: functional
Rattus norvegicus [21] = experiment: Effect on behavioural activity in rat assessed as cocaine-induced lever response at 1 mg/kg, po pretreated with cocaine for 41 mins by drug-discrimination studies; assay type: functional
Rattus norvegicus [22] = experiment: Effect on behavioural activity in rat assessed as cocaine-induced lever response at 1 mg/kg, po pretreated with cocaine for 360 mins by drug-discrimination studies; assay type: functional
Rattus norvegicus [23] = experiment: Effect on behavioural activity in rat assessed as cocaine-induced lever response at 1 mg/kg, po pretreated with cocaine for 90 mins by drug-discrimination studies; assay type: functional
Rattus norvegicus [24] = experiment: Effect on behavioural activity in rat assessed as cocaine-induced lever response at 2.5 mg/kg, po pretreated with cocaine for 90 mins by drug-discrimination studies; assay type: functional
Rattus norvegicus [25] = experiment: Effect on behavioural activity in rat assessed as cocaine-induced lever response at 5 mg/kg, po pretreated with cocaine for 45 mins by drug-discrimination studies; assay type: functional
Rattus norvegicus [26] = experiment: Effect on behavioural activity in rat assessed as cocaine-induced lever response at 5 mg/kg, po pretreated with cocaine for 360 mins by drug-discrimination studies; assay type: functional
Rattus norvegicus [27] = experiment: Effect on behavioural activity in rat assessed as cocaine-induced lever response at 25 mg/kg, po pretreated with cocaine for 180 mins by drug-discrimination studies; assay type: functional
Rattus norvegicus [28] = experiment: Effect on behavioural activity in po dosed rat assessed as cocaine-induced lever response pretreated with cocaine by drug-discrimination studies; assay type: functional
Rattus norvegicus [29] = experiment: Effect on behavioural activity in rat assessed as cocaine-induced lever response at 5 mg/kg, po pretreated with cocaine for 180 mins by drug-discrimination studies; assay type: functional
Rattus norvegicus [30] = experiment: Effect on behavioural activity in rat assessed as cocaine-induced lever response at 5 mg/kg, ip pretreated with cocaine for 30 mins by drug-discrimination studies; assay type: functional; settings: route intraperitoneal
Rattus norvegicus [31] = experiment: Effect on behavioural activity in rat assessed as cocaine-induced lever response at 25 mg/kg, po pretreated with cocaine for 360 mins by drug-discrimination studies; assay type: functional
Rattus norvegicus [32] = experiment: Effect on behavioural activity in rat assessed as cocaine-induced lever response at 1 mg/kg, ip pretreated with cocaine for 30 mins by drug-discrimination studies; assay type: functional; settings: route intraperitoneal
Rattus norvegicus [33] = experiment: Effect on behavioural activity in rat assessed as cocaine-induced lever response at 5 mg/kg, po pretreated with cocaine for 90 mins by drug-discrimination studies; assay type: functional
Rattus norvegicus [34] = experiment: Effect on behavioural activity in rat assessed as cocaine-induced lever response at 10 mg/kg, po pretreated with cocaine for 180 mins by drug-discrimination studies; assay type: functional
Rattus norvegicus [35] = experiment: Effect on behavioural activity in rat assessed as cocaine-induced lever response at 25 mg/kg, ip pretreated with cocaine for 30 mins by drug-discrimination studies; assay type: functional; settings: route intraperitoneal
Rattus norvegicus [36] = experiment: Effect on behavioural activity in rat assessed as cocaine-induced lever response at 25 mg/kg, po pretreated with cocaine for 90 mins by drug-discrimination studies; assay type: functional
Rattus norvegicus [37] = experiment: Effect on behavioural activity in rat assessed as cocaine-induced lever response at 10 mg/kg, po pretreated with cocaine for 90 mins by drug-discrimination studies; assay type: functional
Rattus norvegicus [38] = experiment: Effect on behavioural activity in rat assessed as cocaine-induced lever response at 2.5 mg/kg, ip pretreated with cocaine for 30 mins by drug-discrimination studies; assay type: functional; settings: route intraperitoneal
Rattus norvegicus [39] = experiment: Effect on behavioural activity in rat assessed as cocaine-induced lever response at 10 mg/kg, po pretreated with cocaine for 45 mins by drug-discrimination studies; assay type: functional
Rattus norvegicus [40] = experiment: Effect on behavioural activity in rat assessed as cocaine-induced lever response at 10 mg/kg, ip pretreated with cocaine for 30 mins by drug-discrimination studies; assay type: functional; settings: route intraperitoneal
Rattus norvegicus [41] = experiment: Effect on behavioural activity in rat assessed as cocaine-induced lever response at 2.5 mg/kg, po pretreated with cocaine for 360 mins by drug-discrimination studies; assay type: functional
Rattus norvegicus [42] = experiment: Effect on behavioural activity in rat assessed as cocaine-induced lever response at 2.5 mg/kg, po pretreated with cocaine for 45 mins by drug-discrimination studies; assay type: functional
Rattus norvegicus [43] = experiment: Effect on behavioural activity in rat assessed as cocaine-induced lever response at 2.5 mg/kg, po pretreated with cocaine for 180 mins by drug-discrimination studies; assay type: functional
Rattus norvegicus [44] = experiment: Effect on behavioural activity in rat assessed as cocaine-induced lever response at 25 mg/kg, po pretreated with cocaine for 45 mins by drug-discrimination studies; assay type: functional
Rattus norvegicus [45] = experiment: Effect on behavioural activity in rat assessed as cocaine-induced lever response at 10 mg/kg, po pretreated with cocaine for 360 mins by drug-discrimination studies; assay type: functional
Rattus norvegicus [46] = experiment: Effect on behavioural activity in rat assessed as cocaine-induced lever response at 50 mg/kg, po pretreated with cocaine for 90 mins by drug-discrimination studies; assay type: functional
Rattus norvegicus [47] = experiment: Effect on behavioural activity in rat assessed as cocaine-induced lever response at 50 mg/kg, po pretreated with cocaine for 45 mins by drug-discrimination studies; assay type: functional
Rattus norvegicus [48] = experiment: Effect on behavioural activity in rat assessed as cocaine-induced lever response at 50 mg/kg, po pretreated with cocaine for 360 mins by drug-discrimination studies; assay type: functional
Rattus norvegicus [49] = experiment: Effect on behavioural activity in rat assessed as cocaine-induced lever response at 50 mg/kg, po pretreated with cocaine for 180 mins by drug-discrimination studies; assay type: functional

T1 sequence (P23975 whole entry): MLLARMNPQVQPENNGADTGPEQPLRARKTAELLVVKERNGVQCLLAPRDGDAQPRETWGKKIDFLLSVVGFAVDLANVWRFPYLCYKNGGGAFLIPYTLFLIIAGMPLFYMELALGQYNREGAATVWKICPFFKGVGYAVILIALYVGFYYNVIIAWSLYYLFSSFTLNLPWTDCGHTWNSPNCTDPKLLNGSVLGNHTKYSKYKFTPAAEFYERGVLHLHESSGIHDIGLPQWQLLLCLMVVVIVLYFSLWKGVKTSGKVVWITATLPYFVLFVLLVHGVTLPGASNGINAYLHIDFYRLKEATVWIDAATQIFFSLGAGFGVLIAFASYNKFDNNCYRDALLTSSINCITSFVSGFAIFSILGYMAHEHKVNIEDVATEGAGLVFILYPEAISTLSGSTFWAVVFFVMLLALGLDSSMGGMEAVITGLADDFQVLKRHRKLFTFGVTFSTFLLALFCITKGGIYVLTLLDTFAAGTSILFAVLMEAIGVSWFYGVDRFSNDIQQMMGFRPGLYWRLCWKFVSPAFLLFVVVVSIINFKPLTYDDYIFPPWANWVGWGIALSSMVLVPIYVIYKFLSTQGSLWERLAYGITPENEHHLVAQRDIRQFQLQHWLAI
T2 sequence (P31645 whole entry): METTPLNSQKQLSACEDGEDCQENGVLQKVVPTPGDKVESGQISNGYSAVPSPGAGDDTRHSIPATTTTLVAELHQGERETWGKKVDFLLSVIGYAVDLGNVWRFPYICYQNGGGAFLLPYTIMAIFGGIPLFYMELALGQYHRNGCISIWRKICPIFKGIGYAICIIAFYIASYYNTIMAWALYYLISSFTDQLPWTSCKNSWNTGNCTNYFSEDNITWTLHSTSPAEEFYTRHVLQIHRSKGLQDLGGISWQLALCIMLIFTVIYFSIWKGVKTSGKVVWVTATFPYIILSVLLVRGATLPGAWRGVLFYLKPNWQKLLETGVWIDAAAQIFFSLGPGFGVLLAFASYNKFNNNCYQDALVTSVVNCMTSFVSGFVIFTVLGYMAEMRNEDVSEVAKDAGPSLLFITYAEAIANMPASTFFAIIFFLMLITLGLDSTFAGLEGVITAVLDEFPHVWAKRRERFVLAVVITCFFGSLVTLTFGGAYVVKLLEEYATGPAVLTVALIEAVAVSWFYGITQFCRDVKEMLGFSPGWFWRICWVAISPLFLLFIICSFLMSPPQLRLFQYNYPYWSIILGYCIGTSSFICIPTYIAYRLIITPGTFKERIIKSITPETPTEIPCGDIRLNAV
T3 sequence (Q01959 whole entry): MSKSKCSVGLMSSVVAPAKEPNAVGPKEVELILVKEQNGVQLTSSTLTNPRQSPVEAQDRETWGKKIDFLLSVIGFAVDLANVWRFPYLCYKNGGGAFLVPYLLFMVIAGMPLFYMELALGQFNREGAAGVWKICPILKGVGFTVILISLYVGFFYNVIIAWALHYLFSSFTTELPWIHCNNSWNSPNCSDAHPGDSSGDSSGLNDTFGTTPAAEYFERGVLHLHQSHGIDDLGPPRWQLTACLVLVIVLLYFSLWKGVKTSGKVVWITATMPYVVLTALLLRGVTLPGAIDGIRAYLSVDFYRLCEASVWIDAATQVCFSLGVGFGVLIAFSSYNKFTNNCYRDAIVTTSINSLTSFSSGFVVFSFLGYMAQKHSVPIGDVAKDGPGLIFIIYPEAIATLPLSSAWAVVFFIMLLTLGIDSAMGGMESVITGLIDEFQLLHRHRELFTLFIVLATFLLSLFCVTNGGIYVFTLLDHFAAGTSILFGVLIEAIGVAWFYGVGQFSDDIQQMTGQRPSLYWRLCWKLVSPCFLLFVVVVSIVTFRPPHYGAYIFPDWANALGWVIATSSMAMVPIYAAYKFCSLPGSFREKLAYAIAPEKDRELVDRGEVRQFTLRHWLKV

Row | Compound | Ki [1] [µM] | Time to peak locomotor stimulation (Mus musculus [2]) [min] | Activity (Rattus norvegicus [3]) [%] | Activity (Rattus norvegicus [4]) [%] | Activity (Rattus norvegicus [5]) [%] | ED50 (Mus musculus [6]) [mg/kg] | ED50 (Rattus norvegicus [7]) [mg/kg] | Activity (Rattus norvegicus [8]) [%] | Time (Mus musculus [9]) [min] | Activity (Mus musculus [10]) [%] | Activity (Rattus norvegicus [12]) [%] | Activity (Rattus norvegicus [13]) [%] | Activity (Rattus norvegicus [14]) [%] | Ki [15] [µM] | Ki [17] [µM] | Activity (Rattus norvegicus [25]) [%] | Activity (Rattus norvegicus [27]) [%] | ED50 (Rattus norvegicus [28]) [mg/kg] | Activity (Rattus norvegicus [29]) [%] | Activity (Rattus norvegicus [31]) [%] | other results
1 | CC(C)NC(C)C(=O)c1cccc(Cl)c1 (centres undefined) | > 10 | 20 | 73.5 | 21.2 | 43.8 | 6.2 | 8.8 | 27 | 50 | 46 | 94.9 | 53.3 | 78.6 | > 10 | – | – | – | – | – | – | Activity (Rattus norvegicus [11]): 0.3%
2 | CC(C)CC(NC(C)(C)C)C(=O)c1cccc(Cl)c1 (centres undefined) | 2.3 | 260 | – | – | – | 25.7 | – | – | 60 | 89 | – | – | – | 6.2 | 0.14 | – | – | – | – | – | IC50 [16]: > 10 µM; IC50 [18]: 0.36 µM; IC50 [19]: 0.44 µM
3 | CC(NC(C)(C)C)C(=O)c1ccc(Cl)cc1 (centres undefined) | > 10 | – | – | – | 0.1 | – | – | – | – | – | 33.3 | 32.7 | 18.1 | > 10 | – | – | – | – | – | – | Activity (Rattus norvegicus [20]): 0%; Activity (Rattus norvegicus [21]): 0%; Activity (Rattus norvegicus [22]): 0%; Activity (Rattus norvegicus [23]): 0%
4 | CCCC(NC(C)(C)C)C(=O)c1ccc(Cl)c(Cl)c1 (centres undefined) | – | 0 | – | – | – | 38 | 3.9 | – | 470 | 93 | – | – | – | – | – | 0 | 17 | 22.8 | 0 | 0 | Activity (Rattus norvegicus [24]): 0%; Activity (Rattus norvegicus [26]): 0%; Activity (Rattus norvegicus [30]): 33.3%; Activity (Rattus norvegicus [32]): 0%; Activity (Rattus norvegicus [33]): 13%; Activity (Rattus norvegicus [34]): 5%; Activity (Rattus norvegicus [35]): 100%; Activity (Rattus norvegicus [36]): 84%; Activity (Rattus norvegicus [37]): 0%; Activity (Rattus norvegicus [38]): 41.8%; Activity (Rattus norvegicus [39]): 33%; Activity (Rattus norvegicus [40]): 33.3%; Activity (Rattus norvegicus [41]): 0%; Activity (Rattus norvegicus [42]): 17%; Activity (Rattus norvegicus [43]): 0%; Activity (Rattus norvegicus [44]): 58%; Activity (Rattus norvegicus [45]): 0%
5 | Cc1ccc(C(=O)C(C)NC(C)(C)C)cc1 (centres undefined) | – | 30 | 66.7 | – | 0.6 | 3.8 | 17.3 | – | 60 | 26 | 100 | – | 16.7 | > 10 | > 10 | – | – | – | – | – | –
6 | CC(NC(C)(C)C)C(=O)c1cccc(Cl)c1 (centres undefined) [BUPROPION] | – | 0 | 66.7 | 24.1 | 0 | 5.5 | – | 0.7 | 130 | 87 | – | 67.1 | 66.3 | – | – | 33 | 22 | 22.8 | 2.5 | 1 | Activity (Rattus norvegicus [46]): 50%; Activity (Rattus norvegicus [33]): 0%; Activity (Rattus norvegicus [34]): 0%; Activity (Rattus norvegicus [47]): 83%; Activity (Rattus norvegicus [36]): 0%; Activity (Rattus norvegicus [37]): 1%; Activity (Rattus norvegicus [39]): 17%; Activity (Rattus norvegicus [48]): 0%; Activity (Rattus norvegicus [44]): 50%; Activity (Rattus norvegicus [49]): 17%; Activity (Rattus norvegicus [45]): 0%
